Source: patent US20050037423A1, “Isotopycally coded affinity marker 2” (Bayer Healthcare AG, priority 2001, published 2005)

Assay: Solubility in water
Assay type: physicochemical

**Q.** Which solubility in water does the source give for `O=C(CCN1C(=O)C=CC1=O)NCCCOCCOCCOCCCNC(=O)[C@H](Cc1c[nH]cn1)NC(=S)Nc1ccc(CNC(=O)CCCC[C@@H]2SC[C@@H]3NC(=O)N[C@@H]32)cc1` [Example 3] here?
**A.** The solubility in water was “completely soluble”.
